What was measured:
Conditions in all cases: incubation time: 72 h
[1] = test system: MDA-MB-468; assay: normalised viability (% of control), CellTiter-Blue; higher = more viable cells (about 100 = DMSO control)
Procedure, shortened: (§1)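 Seeded at 20 µl suspension per well onto compound-loaded 384-well plates, breast cancer cell lines were incubated 72 h. CellTiter-Blue fluorescence at 560/590 nm was then read, with each plate normalised to vehicle (100) and a positive kill control (0). Normalised viability is reported at a single listed concentration of the series.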

[2] = test system: MDA-MB-453; assay: as above
Procedure, shortened: as §1

[3] = test system: CAL-85-1; assay: as above
Procedure, shortened: as §1

[4] = test system: MDA-MB-231; assay: as above
Procedure, shortened: as §1

[5] = test system: HCC1143; assay: as above
Procedure, shortened: as §1

[6] = test system: MFM-223; assay: drug sensitivity score (DSS), CellTiter-Blue viability (DSS (AUC-based score)); higher = stronger viability inhibition; extreme values may be limits of the assay
Method: (§2)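 DSRT with the CellTiter-Blue (resazurin reduction) viability readout, fluorescence 560/590 nm, 72 h incubation. Plates were normalised to DMSO and benzethonium chloride controls. DSS is computed from the area under the fitted dose-response curve (5 or 9 concentrations).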

[7] = test system: DU-4475; assay: as above
Method: as §2

[8] = test system: Hs578T; assay: as above
Method: as §2

[9] = test system: MDA-MB-436; assay: as above
Method: as §2

[10] = test system: MDA-MB-468; assay: as above
Method: as §2

[11] = test system: CAL-120; assay: as above
Method: as §2

[12] = test system: CAL-51; assay: as above
Method: as §2

[13] = test system: BT-474; assay: as above
Method: as §2

[14] = test system: HCC1937; assay: as above
Method: as §2

[15] = test system: MDA-MB-453; assay: as above
Method: as §2

[16] = test system: BT-549; assay: as above
Method: as §2

[17] = test system: CAL-85-1; assay: as above
Method: as §2

[18] = test system: CAL-148; assay: as above
Method: as §2

[19] = test system: MDA-MB-231; assay: as above
Method: as §2

[20] = test system: HCC1599; assay: as above
Method: as §2

[21] = test system: HCC1143; assay: as above
Method: as §2

[22] = test system: SK-BR-3; assay: as above
Method: as §2

[23] = test system: HDQ-P1; assay: as above
Method: as §2

Structure (SMILES)	normalised viability ([1]; 10 nM)	normalised viability ([1]; 1000 nM)	normalised viability ([1]; 10000 nM)	normalised viability ([2]; 3 nM)	normalised viability ([2]; 30 nM)	normalised viability ([2]; 100 nM)	normalised viability ([3]; 3 nM)	normalised viability ([3]; 30 nM)	normalised viability ([3]; 100 nM)	normalised viability ([4]; 10 nM)	normalised viability ([4]; 1000 nM)	normalised viability ([4]; 10000 nM)	normalised viability ([5]; 10 nM)	normalised viability ([5]; 1000 nM)	normalised viability ([5]; 10000 nM)	drug sensitivity score [6]	drug sensitivity score [7]	drug sensitivity score [8]	drug sensitivity score [9]	drug sensitivity score [10]	drug sensitivity score [11]	drug sensitivity score [12]	drug sensitivity score [13]	drug sensitivity score [14]	drug sensitivity score [15]	drug sensitivity score [16]	drug sensitivity score [17]	drug sensitivity score [18]	drug sensitivity score [19]	drug sensitivity score [20]	drug sensitivity score [21]	drug sensitivity score [22]	drug sensitivity score [23]
COc1cc([C@@H]2c3cc4c(cc3[C@@H](O[C@@H]3O[C@@H]5CO[C@@H](c6cccs6)O[C@H]5[C@H](O)[C@H]3O)[C@H]3COC(=O)[C@H]23)OCO4)cc(OC)c1O [Teniposide]	99.1%	54.2%	15.6%	135%	92.8%	109%	103%	89.7%	94.5%	103%	73.7%	13.8%	95.6%	49.5%	20.5%	7.43	28	4.64	10.3	10.9	11.2	22.2	1.44	19.7	6.23	9.11	8.14	18.5	7.47	8.13	11.7	21.4	4.07
COc1cc2nccc(Oc3ccc(NC(=O)Nc4cc(C)on4)c(Cl)c3)c2cc1OC [Tivozanib]	103%	111%	51.1%	98%	92.9%	96.3%	100%	107%	103%	87.8%	78.1%	43.1%	111%	105%	94.5%	10.4	0	2.98	0	0	2.1	2.51	2.36	0	5.3	2.11	0	0	3.77	0.494	0	1.12	5.92
CC1=C(/C=C/C(C)=C/C=C/C(C)=C/C(=O)O)C(C)(C)CCC1 [Tretinoin]	99%	117%	113%	121%	103%	105%	85.3%	92.2%	95.7%	103%	104%	109%	86.2%	89.3%	88.1%	0	0	0	0	0	0	0	0	0	0	0	0	4.65	0	3.35	0	7.44	0
C1CN1c1nc(N2CC2)nc(N2CC2)n1 [Triethylenemelamine]	112%	112%	107%	115%	102%	122%	104%	87.6%	108%	104%	81.8%	78.9%	97.8%	102%	93.1%	0	0	0	0	0	0	0	0	0	1.28	1.53	0	0.801	2.85	0	0	0	0
Oc1ncc(N(CCCl)CCCl)c(O)n1 [Uracil mustard]	109%	97.5%	85.7%	103%	107%	101%	94.2%	94.2%	96.7%	100%	103%	89.5%	78.4%	84.8%	92.6%	0	0	0	0	0	0	0	0	3.7	0	0	0	0	0	0	0	0	0
CCCCC(=O)OCC(=O)[C@]1(O)Cc2c(O)c3c(c(O)c2[C@@H](O[C@H]2C[C@H](NC(=O)C(F)(F)F)[C@H](O)[C@H](C)O2)C1)C(=O)c1c(OC)cccc1C3=O [Valrubicin]	105%	42%	30.6%	104%	93.2%	99.3%	80.8%	81.8%	81.5%	84.8%	45.6%	19.4%	97.2%	47.7%	24.9%	6.7	25	10.3	5.44	11.7	15.3	20.6	5.42	16	11	7.75	7.92	21.1	10.8	6.82	11.4	18.6	9.44
CCCS(=O)(=O)Nc1ccc(F)c(C(=O)c2c[nH]c3ncc(-c4ccc(Cl)cc4)cc23)c1F [Vemurafenib]	113%	107%	63.5%	96.5%	93.1%	80.1%	92.8%	84.6%	87.2%	91.5%	92.4%	100%	95.8%	102%	87.4%	0	17.3	1.04	0	0	0	0	0	0.544	0	0	2.25	0	0	0	0	0	1.56

Reference: the supplement of paper PMC4862054
